Earlier results on one molecule are cited in patent publication US6387352B1, “Mouthwash compositions” (Erling Johansen, priority 1996, dated 2002).

The conditions of this data set: compared to similar solutions excluding fluoride.

`F` [fluoride]: the “increase in hardness of dental enamel on addition of fluoride to calcium/phosphate solution” value is on record as “(about) four times increase in hardness”.
